Where two headings read alike, the source gives them in different places.
Tests used:
[1] = test system: Chloroquine-resistant (K1) strain of P. falciparum; experiment: Malaria SYBR Green I-based fluorescence (MSF) assay, K1 strain; assay type: cell-based; conditions: Plasmodium falciparum
Procedure: (§1) The stock (5 mg/mL or 10 mM) solutions of extracts were prepared in DMSO and required dilutions were made in culture medium.
(§2) Two-fold serial dilutions of test samples were made in 96 well plates and incubated with 1.0% parasitized cell suspension containing 0.8% parasitaemia (Asynchronous culture with more than 80% ring stages). The plates were incubated at 37° C. in CO2 incubator in an atmosphere of 5% CO2 and air mixture. 72 hours later 100 μL of lysis buffer containing 2× concentration of SYBR Green-I (Invitrogen) was added to each well and incubated for one hour at 37° C. The plates were examined at 485±20 nm of excitation and 530±20 nm of emission for relative fluorescence units (RFUs) per well using the fluorescence plate reader (FLX800, BIOTEK). IC50 values were obtained by Logit regression analysis of dose response curves (Singh et al. 2011).

[2] = test system: Chloroquine-sensitive (3D7) strain of P. falciparum; experiment: Malaria SYBR Green I-based fluorescence (MSF) assay, 3D7 strain; assay type: cell-based; conditions: Plasmodium falciparum
Procedure: as §1, §2

in vitro = conditions: monkey
Procedure: The cells were incubated with test sample dilutions for 72 h and MTT was used as reagent for detection of cytotoxicity. Podophyllotoxin (SIGMA) was used as the standard reference drug.

[3] = P. falciparum 3D7, 72 hours incubation, read-out: IC50 against 3D7
[4] = P. falciparum K1, 72 hours incubation, read-out: IC50 against K1
[5] = K1, range given for listed compounds, read-out: IC50 values against K1 culture
[6] = 3D7, range given for listed compounds, read-out: IC50 values against 3D7 culture

Row | Compound | IC50 [2, 3] [µM] | melting point [°C] | IC50 [1, 4] [µM] | IC50 [1, 5] [µM] | IC50 [2, 6] [µM] | IC50 ([1]; K1, 72 h, read-out: IC50 against K1) [µM] | IC50 ([2]; 3D7, 72 h, read-out: IC50 against 3D7) [µM] | CC50 at 72 h (in vitro) [µM]
1 | CCN(CC)CCCC(C)Nc1ccnc2cc(Cl)ccc12 (centres unmarked) [CQ, Chloroquine, reference compound] |  |  |  |  |  | 0.25 ± 0.02 | 0.005 | 
2 | COc1ccc([C@H](CNC(=O)/C=C/c2ccccc2)OC(=O)/C=C/c2ccccc2)cc1OC [Compound 2, (R)-2-cinnamamido-1-(3,4-dimethoxyphenyl)ethyl cinnamate] | > 5 | 123 to 125 |  |  |  |  |  | 66.7
3 | COc1cc([C@H](CNC(=O)/C=C/c2ccccc2)OC(=O)/C=C/c2ccccc2)cc(OC)c1OC [Compound 6, (R)-2-cinnamamido-1-(3,4,5-trimethoxyphenyl)ethyl cinnamate] | > 5 | 126 to 127 |  |  |  |  |  | 5.08
4 | COc1ccccc1[C@H](CNC(=O)/C=C/c1ccccc1)OC(=O)/C=C/c1ccccc1 [Compound 10, (R)-2-cinnamamido-1-(2-methoxyphenyl)ethyl cinnamate] | > 5 | 112 to 114 |  |  |  |  |  | 117
5 | COc1cccc([C@@H](CNC(=O)/C=C/c2ccccc2)OC(=O)/C=C/c2ccccc2)c1 [Compound 13, (S)-2-cinnamamido-1-(3-methoxyphenyl)ethyl cinnamate] | > 5 | 139 to 141 |  |  |  |  |  | 148
6 | COc1cccc([C@H](CNC(=O)/C=C/c2ccccc2)OC(=O)/C=C/c2ccccc2)c1 [Compound 14, (R)-2-cinnamamido-1-(3-methoxyphenyl)ethyl cinnamate] | > 5 | 138 to 140 |  |  |  |  |  | 62.7
7 | COc1ccc([C@@H](CNC(=O)/C=C/c2ccccc2)OC(=O)/C=C/c2ccccc2)cc1 [Compound 17, (S)-2-cinnamamido-1-(4-methoxyphenyl)ethyl cinnamate] | > 5 | 137 to 139 |  |  |  |  |  | 
8 | COc1ccc([C@H](CNC(=O)/C=C/c2ccccc2)OC(=O)/C=C/c2ccccc2)cc1 [Compound 18, (R)-2-cinnamamido-1-(4-methoxyphenyl)ethyl cinnamate] | > 5 | 138 to 140 |  |  |  |  |  | 
9 | COc1ccc([C@@H](COC(=O)/C=C/c2ccccc2)OC(=O)/C=C/c2ccccc2)cc1 [Compound 19, (S)-1-(4-methoxyphenyl)ethane-1,2-diyl (2E,2′E)-bis(3-phenylacrylate)] | > 5 | 93 to 96 |  |  |  |  |  | 33.5
10 | COc1ccc([C@H](COC(=O)/C=C/c2ccccc2)OC(=O)/C=C/c2ccccc2)cc1 [Compound 20, (R)-1-(4-methoxyphenyl)ethane-1,2-diyl (2E,2′E)-bis(3-phenylacrylate)] | > 5 | 76 to 79 |  |  |  |  |  | 23.3
11 | O=C(/C=C/c1ccccc1)OC[C@@H](OC(=O)/C=C/c1ccccc1)c1ccccc1 [Compound 27, (S)-1-phenylethane-1,2-diyl (2E,2′E)-bis(3-phenylacrylate)] | > 5 | 131 to 133 |  |  |  |  |  | 39.1
12 | O=C(/C=C/c1ccccc1)OC[C@H](OC(=O)/C=C/c1ccccc1)c1ccccc1 [Compound 28, (R)-1-phenylethane-1,2-diyl (2E,2′E)-bis(3-phenylacrylate)] | > 5 | 132 to 134 |  |  |  |  |  | 30.3
13 | Cc1ccc([C@H](COC(=O)/C=C/c2ccccc2)OC(=O)/C=C/c2ccccc2)cc1 [Compound 32, (R)-1-(p-tolyl) ethane-1,2-diyl (2E,2′E)-bis(3-phenylacrylate)] | > 5 | 103 to 105 |  |  |  |  |  | > 200
14 | O=C(/C=C/c1ccccc1)NC[C@H](OC(=O)/C=C/c1ccccc1)c1ccc2c(c1)OCO2 [Compound 34, (R)-1-(benzo[d][1,3]dioxol-5-yl)-2-cinnamamidoethyl cinnamate] | > 5 | 200 to 202 |  |  |  |  |  | > 200
15 | O=C(/C=C/c1ccccc1)OC[C@@H](OC(=O)/C=C/c1ccccc1)c1cccc2c1OCO2 [Compound 37, (S)-1-(benzo[d][1,3]dioxol-4-yl)ethane-1,2-diyl(2E,2′E)-bis(3-phenyl acrylate)] | > 10 |  | > 10 |  |  |  |  | > 200
16 | O=C(/C=C/c1ccccc1)OC[C@H](OC(=O)/C=C/c1ccccc1)c1cccc2c1OCO2 [Compound 38, (R)-1-(benzo[d][1,3]dioxol-4-yl)ethane-1,2-diyl(2E,2′E)-bis(3-phenyl acrylate)] | 7.42 |  | > 10 |  |  |  |  | > 200
17 | CCCC(=O)NC[C@@H](OC(=O)CCC)c1ccc(OC)c(OC)c1 [Compound 45, (S)-2-butyramido-1-(3,4-dimethoxyphenyl)ethyl butyrate] | > 10 |  | > 10 |  |  |  |  | 51.8
18 | COc1ccc([C@@H](CNC(=O)/C=C/c2ccccc2O[Si](C)(C)C(C)(C)C)OC(=O)/C=C/c2ccccc2O[Si](C)(C)C(C)(C)C)cc1OC [Compound 46, (S)-2-((E)-3-(2-((tert-butyldimethylsilyl)oxy)phenyl)acrylamido)-1-(3,4-dimethoxyphenyl)ethyl (E)-3-(2-((tert-butyldimethylsilyl)oxy)phenyl)acrylate] | 8.49 |  | 4.56 |  |  |  |  | 58.9
19 | COc1ccc([C@@H](CNC(=O)/C=C/c2cccc(O[Si](C)(C)C(C)(C)C)c2)OC(=O)/C=C/c2cccc(O[Si](C)(C)C(C)(C)C)c2)cc1OC [Compound 47, (S)-2-((E)-3-(3-((tert-butyldimethylsilyl)oxy)phenyl)acrylamido)-1-(3,4-dimethoxyphenyl)ethyl (E)-3-(3-((tert-butyldimethylsilyl)oxy)phenyl)acrylate] | > 10 |  | 7.52 |  |  |  |  | 52.6

Second part, led by results:

Row | IC50 [2, 3] [µM] | melting point [°C] | IC50 [1, 4] [µM] | IC50 [1, 5] [µM] | IC50 [2, 6] [µM] | Compound | IC50 ([1]; K1, 72 h, read-out: IC50 against K1) [µM] | IC50 ([2]; 3D7, 72 h, read-out: IC50 against 3D7) [µM] | CC50 at 72 h (in vitro) [µM]
20 | > 5 |  |  |  |  | COc1ccc([C@@H](COC(=O)/C=C/c2ccccc2)OC(=O)/C=C/c2ccccc2)cc1OC [Compound 3, (S)-1-(3,4-dimethoxyphenyl)ethane-1,2-diyl(2E,2′E)-bis(3-phenyl acrylate)] |  |  | 24.3
21 | > 5 |  | > 5 |  |  | COc1ccc([C@H](COC(=O)/C=C/c2ccccc2)OC(=O)/C=C/c2ccccc2)cc1OC [Compound 4, (R)-1-(3,4-dimethoxyphenyl)ethane-1,2-diyl (2E,2′E)-bis(3-phenyl acrylate)] |  |  | 5.87
22 | 3.37 |  | 3.47 | 1.5 to 4 | 2 to 7 | COc1cc([C@@H](COC(=O)/C=C/c2ccccc2)OC(=O)/C=C/c2ccccc2)cc(OC)c1OC [Compound 7, (S)-1-(3,4,5-trimethoxyphenyl)ethane-1,2-diyl(2E,2′E)-bis(3-phenyl acrylate)] |  |  | 6.44
23 | > 5 |  |  |  |  | COc1cc([C@H](COC(=O)/C=C/c2ccccc2)OC(=O)/C=C/c2ccccc2)cc(OC)c1OC [Compound 8, (R)-1-(3,4,5-trimethoxyphenyl)ethane-1,2-diyl (2E,2′E)-bis(3-phenyl acrylate)] |  |  | 122
24 | 3.8 |  | 3.23 | 1.5 to 4 | 2 to 7 | COc1ccccc1[C@@H](COC(=O)/C=C/c1ccccc1)OC(=O)/C=C/c1ccccc1 [Compound 11, (S)-1-(2-methoxyphenyl)ethane-1,2-diyl (2E,2′E)-bis(3-phenylacrylate)] |  |  | 14
25 | > 5 |  |  |  |  | COc1ccccc1[C@H](COC(=O)/C=C/c1ccccc1)OC(=O)/C=C/c1ccccc1 [Compound 12, (R)-1-(2-methoxyphenyl)ethane-1,2-diyl (2E,2′E)-bis(3-phenylacrylate)] |  |  | 51.7
26 | > 5 | 67 to 69 |  |  |  | COc1cccc([C@@H](COC(=O)/C=C/c2ccccc2)OC(=O)/C=C/c2ccccc2)c1 [Compound 15, (S)-1-(3-methoxyphenyl)ethane-1,2-diyl (2E,2′E)-bis(3-phenylacrylate)] |  |  | 61.9
27 | > 5 | 67 to 69 |  |  |  | COc1cccc([C@H](COC(=O)/C=C/c2ccccc2)OC(=O)/C=C/c2ccccc2)c1 [Compound 16, (R)-1-(3-methoxyphenyl)ethane-1,2-diyl (2E,2′E)-bis(3-phenylacrylate)] |  |  | 22.3
28 | > 5 | 105 to 108 |  |  |  | COc1cccc([C@@H](CNC(=O)/C=C/c2ccccc2)OC(=O)/C=C/c2ccccc2)c1OC [Compound 21, (S)-2-cinnamamido-1-(2,3-dimethoxyphenyl)ethyl cinnamate] |  |  | > 200
29 | > 5 |  |  |  |  | COc1cccc([C@@H](COC(=O)/C=C/c2ccccc2)OC(=O)/C=C/c2ccccc2)c1OC [Compound 23, (S)-1-(2,3-dimethoxyphenyl)ethane-1,2-diyl (2E,2′E)-bis(3-phenyl acrylate)] |  |  | 28.4
30 | > 5 |  |  |  |  | COc1cccc([C@H](COC(=O)/C=C/c2ccccc2)OC(=O)/C=C/c2ccccc2)c1OC [Compound 24, (R)-1-(2,3-dimethoxyphenyl)ethane-1,2-diyl(2E,2′E)-bis(3-phenyl acrylate)] |  |  | 82.7
